Data on four molecules can be found in PMC7144377, “In Vitro and In Vivo Characterization of Dibenzothiophene Derivatives [^125I]Iodo-ASEM and [^18F]ASEM as Radiotracers of Homo- and Heteromeric α7 Nicotinic Acetylcholine Receptors” (Molecules, 2020).

In test [1] the target is T1, α7 nicotinic acetylcholine receptor (α7 nAChR) (Sus scrofa, UniProt F1SNR6).
T1 construct: gene CHRNA7; native receptor in pig cortex sections
Briefly: displacement of […]Iodo-ASEM at […] by autoradiography. The settings on record: read-out: [^125I]Iodo-ASEM Binding in the Pig Cortex, Layers 1-3 (%, mean ± S.E.M.).

Test [2] has as its target T1, α7 nicotinic acetylcholine receptor (α7 nAChR). Briefly: displacement of […]Iodo-ASEM at […] by autoradiography; also blocks […]ASEM PET in vivo. The conditions noted are these: read-out: [^125I]Iodo-ASEM Binding in the Pig Cortex, Layers 1-3 (%, mean ± S.E.M.).

Structures are written as SMILES.

T1 sequence (F1SNR6 20-499): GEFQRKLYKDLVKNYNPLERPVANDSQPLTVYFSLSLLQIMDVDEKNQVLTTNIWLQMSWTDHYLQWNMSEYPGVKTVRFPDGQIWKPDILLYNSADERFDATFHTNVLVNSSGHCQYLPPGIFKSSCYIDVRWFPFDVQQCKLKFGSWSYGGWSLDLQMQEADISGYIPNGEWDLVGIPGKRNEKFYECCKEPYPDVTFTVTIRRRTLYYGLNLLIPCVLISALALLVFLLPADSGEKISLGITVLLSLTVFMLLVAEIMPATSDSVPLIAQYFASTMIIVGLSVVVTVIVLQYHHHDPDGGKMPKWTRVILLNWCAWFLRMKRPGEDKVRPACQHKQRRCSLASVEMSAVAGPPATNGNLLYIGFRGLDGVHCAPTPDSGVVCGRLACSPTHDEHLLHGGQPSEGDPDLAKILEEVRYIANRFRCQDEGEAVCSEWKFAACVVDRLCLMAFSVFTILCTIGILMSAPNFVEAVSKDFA

As to `CCN1C[C@]2(COC(=O)c3ccccc3N3C(=O)C[C@H](C)C3=O)CC[C@H](OC)[C@@]34[C@@H]5C[C@H]6[C@H](OC)[C@@H]5[C@](O)(C[C@@H]6OC)[C@@](O)([C@@H](OC)[C@H]23)[C@@H]14` [methyllycaconitine], the activity at 10 µM in test [1] came to 20.5 ± 2.18%.
Same read-out and setting: then `O=C(N[C@@H]1C2CCN(CC2)[C@H]1Cc1cccnc1)c1cc2ccccc2o1` [TC-5619], with 7.88 ± 1.65%.
With `O=C(Oc1ccc(Br)cc1)N1CCN2CCC1CC2` [SSR-180,711], in test [2], the activity at 10 µM came out at 2.92 ± 0.35%.
In the case of `CN1C[C@@H]2CN(c3ccc(-c4ccccc4)nn3)C[C@@H]2C1` [A-582941], the activity at 10 µM in test [1] is 3.22 ± 0.28%.
